Reference: patent US20260042731A1, “(2,4-DICHLOROPHENOXY)ACETIC ACID ANALOGS” (CORTEVA AGRISCIENCE LLC, priority 2022, published 2026)
Read-outs that look alike come from different tables or passages of the source.

Tests used:
[1] = tested on: Ambrosia artemisiifolia (AMBEL), common ragweed; experiment: Postemergence herbicide evaluation, growth of Ambrosia artemisiifolia (AMBEL); type: in vivo; settings: Ambrosia artemisiifolia, post-emergence, read-out: AVE. AMBEL, percent reduction in plant size relative to the untreated control; for pest or weed control at 280 g/ha: 280 g ae/ha; for pest or weed control at 560 g/ha: 560 g ae/ha
[2] = Volatility of compounds measured by thermogravimetric analysis (TGA); type: physicochemical
[3] = tested on: glyphosate resistant Conyza canadensis (L.) (ERICA), horseweed; experiment: Postemergence herbicide evaluation, growth of Conyza canadensis (ERICA); type: in vivo; settings: Erigeron canadensis, post-emergence, read-out: Ave. ERICA, percent reduction in plant size relative to the untreated control; for pest or weed control at 280 g/ha: 280 g ae/ha; for pest or weed control at 560 g/ha: 560 g ae/ha
[4] = tested on: Chenopodium album (CHEAL), common lambsquarters; experiment: Postemergence herbicide evaluation, growth of Chenopodium album (CHEAL); type: in vivo; settings: Chenopodium album, post-emergence, read-out: Ave. CHEAL, percent reduction in plant size relative to the untreated control; for pest or weed control at 280 g/ha: 280 g ae/ha; for pest or weed control at 560 g/ha: 560 g ae/ha
[5] = tested on: weeds ABUTH, AMATA, AMBEL, CHEAL, ERICA; experiment: Postemergence herbicide evaluation, overall average % weed control (ABUTH, AMATA, AMBEL, CHEAL, ERICA); type: in vivo; settings: post-emergence, read-out: Overall Ave % Weed Control; for pest or weed control at 280 g/ha: 280 g ae/ha; for pest or weed control at 560 g/ha: 560 g ae/ha
[6] = tested on: Abutilon theophrasti (ABUTH), velvetleaf; experiment: Postemergence herbicide evaluation, growth of Abutilon theophrasti (ABUTH); type: in vivo; settings: Abutilon theophrasti, post-emergence, read-out: AVE. ABUTH, percent reduction in plant size relative to the untreated control; for pest or weed control at 280 g/ha: 280 g ae/ha; for pest or weed control at 560 g/ha: 560 g ae/ha
[7] = tested on: Amaranthus rudis (AMATA), tall water hemp; experiment: Postemergence herbicide evaluation, growth of Amaranthus rudis (AMATA); type: in vivo; settings: Amaranthus tuberculatus, post-emergence, read-out: Ave. AMATA, percent reduction in plant size relative to the untreated control; for pest or weed control at 280 g/ha: 280 g ae/ha; for pest or weed control at 560 g/ha: 560 g ae/ha

Row | Structure (SMILES) | pest or weed control at 280 g/ha ([1]; 168 h, 7 DAA) [%] | pest or weed control at 560 g/ha ([1]; 168 h, 7 DAA) [%] | pest or weed control at 280 g/ha ([1]; 336 h, 14 DAA) [%] | pest or weed control at 560 g/ha ([1]; 336 h, 14 DAA) [%] | pest or weed control at 280 g/ha ([1]; 504 h, 21 DAA) [%] | pest or weed control at 560 g/ha ([1]; 504 h, 21 DAA) [%] | TGA Data (rate of weight loss, volatility) [2] [µg/min] | pest or weed control at 280 g/ha ([3]; 168 h, 7 DAA) [%] | pest or weed control at 560 g/ha ([3]; 168 h, 7 DAA) [%] | pest or weed control at 280 g/ha ([3]; 336 h, 14 DAA) [%] | pest or weed control at 560 g/ha ([3]; 336 h, 14 DAA) [%] | pest or weed control at 280 g/ha ([3]; 504 h, 21 DAA) [%] | pest or weed control at 560 g/ha ([3]; 504 h, 21 DAA) [%] | pest or weed control at 280 g/ha ([4]; 168 h, 7 DAA) [%] | pest or weed control at 560 g/ha ([4]; 168 h, 7 DAA) [%] | pest or weed control at 280 g/ha ([4]; 336 h, 14 DAA) [%] | pest or weed control at 560 g/ha ([4]; 336 h, 14 DAA) [%] | pest or weed control at 280 g/ha ([4]; 504 h, 21 DAA) [%] | pest or weed control at 560 g/ha ([4]; 504 h, 21 DAA) [%] | pest or weed control at 280 g/ha ([5]; 168 h, 7 DAA) [%] | other results
1 | N/C(=N\OC(=O)COc1ccc(Cl)cc1Cl)c1ccccc1 [Compound A3, N′-(2-(2,4-Dichlorophenoxy)acetoxy)benzimidamide] | 63 | 75 | 78 | 95 | 90 | 90 | 1 | 68 | 75 | 85 | 90 | 90 | 95 | 75 | 68 | 83 | 83 | 85 | 87 | 67 | pest or weed control at 560 g/ha ([5]; 168 h, 7 DAA): 73%; pest or weed control at 280 g/ha ([5]; 336 h, 14 DAA): 75%; pest or weed control at 560 g/ha ([5]; 336 h, 14 DAA): 85%; pest or weed control at 280 g/ha ([5]; 504 h, 21 DAA): 81%; pest or weed control at 560 g/ha ([5]; 504 h, 21 DAA): 83%; pest or weed control at 280 g/ha ([6]; 168 h, 7 DAA): 53%; pest or weed control at 560 g/ha ([6]; 168 h, 7 DAA): 68%; pest or weed control at 280 g/ha ([6]; 336 h, 14 DAA): 55%; pest or weed control at 560 g/ha ([6]; 336 h, 14 DAA): 68%; pest or weed control at 280 g/ha ([6]; 504 h, 21 DAA): 58%; pest or weed control at 560 g/ha ([6]; 504 h, 21 DAA): 72%; pest or weed control at 280 g/ha ([7]; 168 h, 7 DAA): 75%; pest or weed control at 560 g/ha ([7]; 168 h, 7 DAA): 78%; pest or weed control at 280 g/ha ([7]; 336 h, 14 DAA): 75%; pest or weed control at 560 g/ha ([7]; 336 h, 14 DAA): 90%; pest or weed control at 280 g/ha ([7]; 504 h, 21 DAA): 83%; pest or weed control at 560 g/ha ([7]; 504 h, 21 DAA): 70%
2 | CC(C)ONC(=O)COc1ccc(Cl)cc1Cl [Compound D23] | 77.5 | 75 | 80 | 85 | 100 | 100 | 0.6973 | 80 | 77.5 | 100 | 97.5 | 99 | 100 | 80 | 85 | 96.5 | 99 | 94 | 95 | 78 | pest or weed control at 560 g/ha ([5]; 168 h, 7 DAA): 82%; pest or weed control at 280 g/ha ([5]; 336 h, 14 DAA): 92%; pest or weed control at 560 g/ha ([5]; 336 h, 14 DAA): 94.1%; pest or weed control at 280 g/ha ([5]; 504 h, 21 DAA): 92.9%; pest or weed control at 560 g/ha ([5]; 504 h, 21 DAA): 96.5%; pest or weed control at 280 g/ha ([6]; 168 h, 7 DAA): 70%; pest or weed control at 560 g/ha ([6]; 168 h, 7 DAA): 90%; pest or weed control at 280 g/ha ([6]; 336 h, 14 DAA): 93.5%; pest or weed control at 560 g/ha ([6]; 336 h, 14 DAA): 99%; pest or weed control at 280 g/ha ([6]; 504 h, 21 DAA): 99%; pest or weed control at 560 g/ha ([6]; 504 h, 21 DAA): 100%; pest or weed control at 280 g/ha ([7]; 168 h, 7 DAA): 82.5%; pest or weed control at 560 g/ha ([7]; 168 h, 7 DAA): 82.5%; pest or weed control at 280 g/ha ([7]; 336 h, 14 DAA): 90%; pest or weed control at 560 g/ha ([7]; 336 h, 14 DAA): 90%; pest or weed control at 280 g/ha ([7]; 504 h, 21 DAA): 72.5%; pest or weed control at 560 g/ha ([7]; 504 h, 21 DAA): 87.5%
